Results as given in patent EP0978280A1, “2-[…]” (priority 1997, dated 1998).
Where a name gives a salt, the structure may show the parent alone.

Biological target: T1, Nicotinic acetylcholine receptor (Rattus norvegicus, UniProt P09483+P12390)
T1 construct: the rat was decapitated, and the whole brain was removed and homogenized; from tissue; host or cells: rat whole brain membrane fraction
Conditions: 10 nM of the test drug; 1 nM of ^3H-cytidine; rat whole brain membrane fraction; 4°C for 75 min; nonspecific binding with 10 µM (-)nicotine
Procedure: Nicotinic acetylcholine receptor binding assay
The membrane fraction was prepared in accordance with the protocol described in Brain Res., 100, 81-87 (1977). Thus, the rat was decapitated, and the whole brain was removed and homogenized with 15 volumes of cold 0.32 M aqueous sucrose solution using a Teflon homogenizer. The homogenate was centrifuged at 4°C and 1,000 x g for 10 mm. and the supernatant obtained was centrifuged at 4°C and 20,000 x g for 20 min. Then, ice-cold distilled water was added to the pellet, and the pellet was suspended using Hiscotron®. The suspension was centrifuged at 4°C and 8,000 x g for 20 min. and the supernatant and the buffy coat layer were recovered and centrifuged again at 4°C and 40,000 x g for 20 min. The pellet obtained was suspended in cold distilled water and stored at -80°C until used.
The receptor binding experiment was performed in accordance with the protocol described in J. Pharamcol. Exp. Ther., 270, 310-318 (1994). Thus, the rat whole brain membrane fraction (ca 200 µg) was incubated in BSS-Tris buffer [composition mM: NaCl 120, KCl 5, CaCl22, MgCl22, Tris-HCl 50 (pH=7.4, at 4°C)] containing 1 nM of ^3H-cytidine and 10 nM of the test drug at 4°C for 75 min. To stop the reaction, 4 ml of cold BSS-Tris buffer was added and the reaction mixture was immediately suction-filtered on GF/B glass fiber filter paper which had been pre-soaked in 0.5% polyethyleneimine. The filter paper was recovered, 4 ml of ACS-II (Amersham, TM) was added, and the ^3H radioactivity was determined with a scintillation counter. Based on the value (specific binding) obtained after subtraction of the ^3H-binding (nonspecific binding) amount in the presence of 10 µM (-)nicotine, the inhibition rate of ^3H-cytidine binding at the 10 nM concentration of each drug was calculated.

T1 sequence (P09483 31-630): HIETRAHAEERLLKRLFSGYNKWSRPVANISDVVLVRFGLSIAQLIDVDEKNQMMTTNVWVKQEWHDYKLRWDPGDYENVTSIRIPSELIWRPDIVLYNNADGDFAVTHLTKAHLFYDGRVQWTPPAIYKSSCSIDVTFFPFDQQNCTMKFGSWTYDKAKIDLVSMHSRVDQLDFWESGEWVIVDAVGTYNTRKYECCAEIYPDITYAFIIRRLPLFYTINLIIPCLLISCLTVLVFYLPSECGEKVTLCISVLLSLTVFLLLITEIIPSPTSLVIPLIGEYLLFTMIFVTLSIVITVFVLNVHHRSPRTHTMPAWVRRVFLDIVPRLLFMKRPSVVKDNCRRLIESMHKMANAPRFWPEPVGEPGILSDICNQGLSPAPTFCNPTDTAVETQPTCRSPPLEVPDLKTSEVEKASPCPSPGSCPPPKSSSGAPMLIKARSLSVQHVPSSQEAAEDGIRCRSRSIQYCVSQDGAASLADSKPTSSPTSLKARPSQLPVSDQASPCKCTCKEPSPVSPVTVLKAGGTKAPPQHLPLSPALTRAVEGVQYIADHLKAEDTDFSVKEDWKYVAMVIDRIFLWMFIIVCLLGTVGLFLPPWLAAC
T1 sequence (P12390 25-500): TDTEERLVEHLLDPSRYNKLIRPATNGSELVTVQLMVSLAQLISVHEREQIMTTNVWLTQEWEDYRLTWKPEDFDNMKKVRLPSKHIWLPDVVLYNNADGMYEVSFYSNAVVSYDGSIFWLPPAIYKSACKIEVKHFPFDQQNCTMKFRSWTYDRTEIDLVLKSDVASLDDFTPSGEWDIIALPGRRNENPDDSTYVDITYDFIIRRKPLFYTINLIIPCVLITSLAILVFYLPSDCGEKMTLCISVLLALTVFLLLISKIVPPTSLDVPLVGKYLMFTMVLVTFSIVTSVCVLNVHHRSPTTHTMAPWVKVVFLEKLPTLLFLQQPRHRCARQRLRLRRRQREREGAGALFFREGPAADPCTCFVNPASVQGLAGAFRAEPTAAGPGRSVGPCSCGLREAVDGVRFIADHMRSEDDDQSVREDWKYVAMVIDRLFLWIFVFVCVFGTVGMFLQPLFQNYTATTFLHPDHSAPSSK

| SMILES | Inhibition of ^3H-Cytidine binding |
| --- | --- |
| c1cncc(C2CC3CCC2NC3)c1 (stereo not drawn) [Example 1, Syn-6-(3-pyridyl)-2-azabicyclo[2. 2. 2]octane oxalate] | 94% |
| c1ncc(C2CC3CCC2NC3)cn1 (stereo not drawn) [Example 16, Syn-6-(5-pyrimidinyl)-2-azabicyclo[2. 2. 2]octane] | 93% |
| Cc1cc(C2CC3CCC2NC3)on1 (stereo not drawn) [Example 18, Syn-6-(3-methyl-5-isoxazolyl)-2-azabicyclo[2. 2. 2]octane] | 84% |
| C1=C(c2cnccn2)C2CCC1CN2 (stereo not drawn) [Example 23, 6-(2-Pyrazinyl)-2-azabicyclo[2. 2. 2]oct-5-ene] | 39% |
| Brc1cncc(C2=CC3CCC2CN3)c1 (stereo not drawn) [Example 24, 5-(5-Bromo-3-pyridyl)-2-azabicyclo[2. 2. 2]oct-5-ene] | 92% |
| C#Cc1cncc(C2CC3CCC2NC3)c1 (stereo not drawn) [Example 28, Syn-6-(5-ethynyl-3-pyridyl)-2-azabicyclo[2. 2. 2]octane] | 91% |
| c1ccc(-c2cncc(C3CC4CCC3NC4)c2)cc1 (stereo not drawn) [Example 29, Syn-6-(5-phenyl-3-pyridyl)-2-azabicyclo[2. 2. 2]octane] | 86% |
| c1cncc(C2CC3CC2CN3)c1 (stereo not drawn) [Example 30, Syn-5-(3-pyridyl)-2-azabicyclo[2. 2. 1]heptane] | 87% |
| c1cncc(C2CC3CCCC2NC3)c1 (stereo not drawn) [Example 31, Syn-8-(3-pyridyl)-7-azabicyclo[3. 2. 2.]nonane] | 84% |
